Measurements reported in patent publication US8536354B2, “Steroidal ligands and their use in gene switch modulation” (Intrexon Corporation, priority 2008, dated 2013).
Entries after “also recorded” stand apart in the source; their conditions may differ. Where two headings read alike, the source gives them in different places.

Tests used:
[1] = target: T1, wild-type Choristoneura fumiferana EcR (CfEcR-DEF) (Choristoneura fumiferana, UniProt O77255); experiment: Two-hybrid gene switch assay, wild-type CfEcR-DEF (GAL4-EcR / VP16-RXR-USP chimera, luciferase) in NIH3T3 cells; settings: for Emax: NIH3T3, 48 h
T1 sequence (O77255 219-541): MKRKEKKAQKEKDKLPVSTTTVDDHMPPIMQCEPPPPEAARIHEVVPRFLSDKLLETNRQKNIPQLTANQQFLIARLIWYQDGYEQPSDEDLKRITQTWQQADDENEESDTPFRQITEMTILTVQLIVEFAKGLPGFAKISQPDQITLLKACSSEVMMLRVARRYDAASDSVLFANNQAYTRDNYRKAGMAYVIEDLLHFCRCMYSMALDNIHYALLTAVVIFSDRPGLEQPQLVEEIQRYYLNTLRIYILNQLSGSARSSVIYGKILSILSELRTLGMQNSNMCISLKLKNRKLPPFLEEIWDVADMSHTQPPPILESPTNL
T1 sequence (P28702 299-449 partner): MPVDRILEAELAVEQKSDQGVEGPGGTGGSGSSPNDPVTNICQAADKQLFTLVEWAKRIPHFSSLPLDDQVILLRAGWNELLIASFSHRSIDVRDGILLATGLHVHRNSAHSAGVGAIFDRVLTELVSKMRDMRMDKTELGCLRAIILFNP

[2] = target: T2, Amblyomma americanum EcR (AmaEcR-DEF) (Amblyomma americanum, UniProt O44338); experiment: Two-hybrid gene switch assay, AmaEcR-DEF in NIH3T3 cells; settings: for Emax: NIH3T3, 48 h
T2 sequence (O44338 291-570): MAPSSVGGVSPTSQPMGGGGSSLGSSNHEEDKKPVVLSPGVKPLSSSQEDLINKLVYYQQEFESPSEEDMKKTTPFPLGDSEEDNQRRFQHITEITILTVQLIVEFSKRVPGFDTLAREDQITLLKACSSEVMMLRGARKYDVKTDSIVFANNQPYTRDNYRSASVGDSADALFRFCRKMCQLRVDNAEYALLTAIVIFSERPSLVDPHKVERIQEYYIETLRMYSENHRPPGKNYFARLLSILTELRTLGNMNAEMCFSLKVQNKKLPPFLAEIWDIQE
T2 sequence (P28702 299-449 partner): T1 sequence (P28702 299-449 partner)

[3] = target: T3, Tenebrio molitor EcR (TmEcR-DEF) (Tenebrio molitor, UniProt O02035); experiment: Two-hybrid gene switch assay, TmEcR-DEF in NIH3T3 cells; settings: for Emax: NIH3T3, 48 h
T3 sequence (O02035 194-491): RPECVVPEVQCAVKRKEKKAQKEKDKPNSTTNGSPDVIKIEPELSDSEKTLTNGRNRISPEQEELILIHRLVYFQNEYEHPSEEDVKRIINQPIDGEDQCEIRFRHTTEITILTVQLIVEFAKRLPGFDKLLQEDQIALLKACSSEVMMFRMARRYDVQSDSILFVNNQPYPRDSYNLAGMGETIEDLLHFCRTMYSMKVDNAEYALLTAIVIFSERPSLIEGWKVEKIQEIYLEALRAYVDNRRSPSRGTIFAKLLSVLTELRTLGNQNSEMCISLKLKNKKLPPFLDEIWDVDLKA
T3 sequence (P28704 285-520 partner): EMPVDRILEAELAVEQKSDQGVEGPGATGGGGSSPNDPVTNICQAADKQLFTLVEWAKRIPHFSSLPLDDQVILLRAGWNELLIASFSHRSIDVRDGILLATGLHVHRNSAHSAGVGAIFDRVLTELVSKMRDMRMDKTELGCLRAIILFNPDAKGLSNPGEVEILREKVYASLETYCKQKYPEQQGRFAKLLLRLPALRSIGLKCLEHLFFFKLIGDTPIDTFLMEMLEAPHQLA

[4] = target: T4, wild-type Drosophila melanogaster EcR (DmEcR-DEF) (Drosophila melanogaster, UniProt P34021); experiment: Two-hybrid gene switch assay, DmEcR-DEF in NIH3T3 cells; settings: for rel max FI (20E), DM: max fold induction at any concentration relative to 20E; for rel max FI (PoA), DM: max fold induction at any concentration relative to PoA
T4 sequence (P34021 342-878 limits assumed): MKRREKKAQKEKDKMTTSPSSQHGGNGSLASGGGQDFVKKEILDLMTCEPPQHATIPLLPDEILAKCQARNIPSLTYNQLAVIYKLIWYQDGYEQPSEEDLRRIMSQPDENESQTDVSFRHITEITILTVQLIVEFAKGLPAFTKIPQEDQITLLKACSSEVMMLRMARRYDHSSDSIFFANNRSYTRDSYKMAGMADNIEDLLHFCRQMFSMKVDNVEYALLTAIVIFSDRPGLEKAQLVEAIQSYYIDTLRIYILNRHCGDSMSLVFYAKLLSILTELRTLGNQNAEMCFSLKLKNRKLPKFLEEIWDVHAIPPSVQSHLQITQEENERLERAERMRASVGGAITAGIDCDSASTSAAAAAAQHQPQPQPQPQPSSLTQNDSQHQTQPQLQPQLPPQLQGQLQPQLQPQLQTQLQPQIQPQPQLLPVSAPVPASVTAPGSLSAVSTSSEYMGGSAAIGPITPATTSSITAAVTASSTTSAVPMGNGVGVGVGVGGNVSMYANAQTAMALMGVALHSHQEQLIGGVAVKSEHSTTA

[5] = tested on: EcRs (lepidopteran and non-lepidopteran); experiment: Two-hybrid gene switch assays, statements across the set of ten EcRs in NIH3T3 cells
[6] = tested on: D. melanogaster BII cell line (expresses the ecdysteroid receptor complex EcR-USP); experiment: Drosophila melanogaster BII cell line bioassay (turbidometric; agonist and antagonist versions); settings: Drosophila BII cell line, Example Two
[7] = read-out: rel max FI (20E), AMA
[8] = read-out: rel max FI (PoA), AMA

## COC1C[C@H]2C(=O)C=C3[C@H](CC[C@]4(C)[C@@H]([C@@](C)(O)C(CCC(C)(C)O)OC)CC[C@@]34OC)[C@@]2(C)CC1OC (some centres unmarked) [20E-2,3,14,22-tetramethyl ether]
[1]; read-out: EC50 (μM), CF, wild-type CfEcR, NIH3T3 cells, luciferase, 48 h, ligand 0.01-33 μM
  EC50: > 33 µM
[1]; wild-type CfEcR, max fold induction at any concentration relative to 20E
  rel max FI (20E), CF: 0.46
[1]; wild-type CfEcR, max fold induction at any concentration relative to PoA
  rel max FI (PoA), CF: 0.00
[2]; AmaEcR, max fold induction at any concentration relative to 20E
  rel max FI (20E), AMA: 0.34
[2]; AmaEcR, max fold induction at any concentration relative to PoA
  rel max FI (PoA), AMA: 0.26
[2]; read-out: EC50 (μM), AMA, AmaEcR, NIH3T3 cells, luciferase, 48 h, ligand 0.01-33 μM
  EC50: > 33 µM
[3]; TmEcR, max fold induction at any concentration relative to 20E
  rel max FI (20E), TM: 0.05
[3]; TmEcR, max fold induction at any concentration relative to PoA
  rel max FI (PoA), TM: 0.02
[3]; read-out: EC50 (μM), TM, TmEcR, NIH3T3 cells, luciferase, 48 h, ligand 0.01-33 μM
  EC50: > 33 µM
[4]; DmEcR
  rel max FI (20E), DM: 0.01
  rel max FI (PoA), DM: 0.02
[4]; read-out: EC50 (μM), DM, DmEcR, NIH3T3 cells, luciferase, 48 h, ligand 0.01-33 μM
  EC50: > 33 µM

## CO[C@H]1C[C@@]2(C)[C@@H](C[C@H]1O)C(=O)C=C1[C@@H]2CC[C@]2(C)[C@@H]([C@@](C)(O)[C@@H](CCC(C)(C)O)OC)CC[C@@]12O [20E-2,22-dimethyl ether]
[1]
  EC50: > 33 µM
[1]; read-out: rel max FI (20E), CF
  Emax: 63%
[1]; read-out: rel max FI (PoA), CF
  Emax: 0%
[2]
  EC50: ~8 µM
[2]; [7]
  Emax: 94%
[2]; [8]
  Emax: 72%
[3]
  EC50: ~10 µM
[3]; read-out: rel max FI (20E), TM
  Emax: 24%
[3]; read-out: rel max FI (PoA), TM
  Emax: 13%
[4]; DmEcR
  rel max FI (20E), DM: 0.12
  rel max FI (PoA), DM: 0.15
[4]; EC50 (μM), DM, DmEcR, NIH3T3 cells, luciferase, 48 h, ligand 0.01-33 μM
  EC50: ~20 µM

## CO[C@H]1C[C@@]2(C)[C@@H](C[C@H]1O)C(=O)C=C1[C@@H]2CC[C@]2(C)[C@@H]([C@@](C)(O)[C@H](O)CCC(C)(C)O)CC[C@@]12O [20E-2-methyl ether]
[1]
  EC50: > 33 µM
[1]; read-out: rel max FI (20E), CF
  Emax: 14%
[1]; read-out: rel max FI (PoA), CF
  Emax: 0%
[2]
  EC50: ~10 µM
[2]; [7]
  Emax: 65%
[2]; [8]
  Emax: 50%
[3]
  EC50: > 33 µM
[3]; read-out: rel max FI (20E), TM
  Emax: 7%
[3]; read-out: rel max FI (PoA), TM
  Emax: 4%
[4]
  EC50: > 33 µM
[4]; DmEcR
  rel max FI (20E), DM: 0.00
  rel max FI (PoA), DM: 0.00

## CO[C@@H]1C[C@H]2C(=O)C=C3[C@H](CC[C@]4(C)[C@@H]([C@@](C)(O)[C@@H](CCC(C)(C)O)OC)CC[C@@]34O)[C@@]2(C)C[C@@H]1O [20E-3,22-dimethyl ether]
[1]
  EC50: > 33 µM
[1]; read-out: rel max FI (20E), CF
  Emax: 46%
[1]; read-out: rel max FI (PoA), CF
  Emax: 0%
[2]
  EC50: ~2 µM
[2]; [7]
  Emax: 104%
[2]; [8]
  Emax: 80%
[3]
  EC50: ~6 µM
[3]; read-out: rel max FI (20E), TM
  Emax: 137%
[3]; read-out: rel max FI (PoA), TM
  Emax: 71%
[4]
  EC50: ~20 µM
[4]; DmEcR
  rel max FI (20E), DM: 0.07
  rel max FI (PoA), DM: 0.09

## CO[C@@H]1C[C@H]2C(=O)C=C3[C@H](CC[C@]4(C)[C@@H]([C@@](C)(O)[C@H](O)CCC(C)(C)O)CC[C@@]34O)[C@@]2(C)C[C@@H]1O [20E-3-methyl ether]
[1]
  EC50: > 33 µM
[1]; read-out: rel max FI (20E), CF
  Emax: 115%
[1]; read-out: rel max FI (PoA), CF
  Emax: 1%
[2]
  EC50: ~3.3 µM
[2]; [7]
  Emax: 91%
[2]; [8]
  Emax: 70%
[3]
  EC50: ~10 µM
[3]; read-out: rel max FI (20E), TM
  Emax: 114%
[3]; read-out: rel max FI (PoA), TM
  Emax: 59%
[4]
  EC50: > 33 µM
[4]; DmEcR
  rel max FI (20E), DM: 0.02
  rel max FI (PoA), DM: 0.03

## CO[C@H](CCC(C)(C)O)[C@](C)(O)C1CC[C@@]2(O)C3=CC(=O)C4C[C@@H](O)[C@@H](O)CC4(C)C3CCC12C (some centres unmarked) [20E-22-methyl ether]
[1]
  EC50: > 33 µM
[1]; read-out: rel max FI (20E), CF
  Emax: 7%
[1]; read-out: rel max FI (PoA), CF
  Emax: 0%
[2]
  EC50: ~1 µM
[2]; [7]
  Emax: 108%
[2]; [8]
  Emax: 83%
[3]
  EC50: 7.08 µM
[3]; read-out: rel max FI (20E), TM
  Emax: 158%
[3]; read-out: rel max FI (PoA), TM
  Emax: 81%
[4]
  EC50: ~4 µM
[4]; DmEcR
  rel max FI (20E), DM: 0.87
  rel max FI (PoA), DM: 1.07

## CC(C)CC[C@@H](O)[C@](C)(O)[C@H]1CC[C@@]2(O)C3=CC(=O)[C@@H]4C[C@@H](O)[C@@H](O)C[C@]4(C)[C@H]3[C@H](O)C[C@]12C [ajugasterone C]
[5]
  selectivity / relative potency between EcRs: higher in non-lepidopteran species

## CC(C)(O)C(CCC(C)(O)C1CCC2(O)C3=CC(=O)C4CC(O)C(O)CC4(C)C3CCC12C)OC(=O)c1ccc[nH]1 (centres unmarked) [canescensterone]
[6]
  EC50: 0.00053 µM
[5]
  selectivity / relative potency between EcRs: selective for non-lepidopteran EcRs; also recorded: BaEcR>E274V/V390I/Y410E mutant-CfEcR

## C[C@@H]1C(=O)O[C@H](C)[C@H]1C[C@@H](O)[C@](C)(O)[C@H]1CC[C@@]2(O)C3=CC(=O)[C@@H]4C[C@@H](O)[C@@H](O)C[C@]4(C)[C@H]3CC[C@]12C [cyasterone]
[5]
  selectivity / relative potency between EcRs: somewhat selective for lepidopteran EcRs

## CC(C)=CC[C@@H](O)[C@](C)(O)[C@H]1CC[C@@]2(O)C3=CC(=O)[C@@H]4C[C@@H](O)[C@@H](O)C[C@]4(C)[C@H]3CC[C@]12C [stachysterone C]
[5]; FIGS. 13 and 14
  activity across the tested set of EcRs: active
